pIC50: −log10 of the molar value.
Test system: 276233-004-R-J1-PDC complex spheroid viability
Assay: Anticancer human tumor 276233-004-R-J1-PDC patient-derived colon adenocarcinoma cell line growth inhibition [GQUAD]
Details: for pIC50: curve of first compound; for viability, T/C: stronger effect = lower value; active = viability on the fitted dose curve at most 10% of control; inactive = the rest
Outline: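 Tumor cells were grown as complex spheroids with HUVEC endothelial cells and mesenchymal stem cells as stroma. G-quadruplex stabilizers were combined with targeted agents over half-log dilutions from near the clinical Cmax, or from 10 microM.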

[1] = second compound 0.0316 µM, first compound 0.0316 µM
[2] = second compound 0.0316 µM, first compound 0.1 µM
[3] = second compound 0.0316 µM, first compound 0.316 µM
[4] = second compound 0.0316 µM, first compound 1 µM
[5] = second compound 0.0316 µM, first compound 3.16 µM
[6] = second compound 0.0316 µM, first compound 10 µM
[7] = second compound 0.1 µM, first compound 0.0316 µM
[8] = second compound 0.1 µM, first compound 0.1 µM
[9] = second compound 0.1 µM, first compound 0.316 µM
[10] = second compound 0.1 µM, first compound 1 µM
[11] = second compound 0.1 µM, first compound 3.16 µM
[12] = second compound 0.1 µM, first compound 10 µM
[13] = second compound 0.316 µM, first compound 0.0316 µM
[14] = second compound 0.316 µM, first compound 0.1 µM
[15] = second compound 0.316 µM, first compound 0.316 µM
[16] = second compound 0.316 µM, first compound 1 µM
[17] = second compound 0.316 µM, first compound 3.16 µM
[18] = second compound 0.316 µM, first compound 10 µM
[19] = second compound 1 µM, first compound 0.0316 µM
[20] = second compound 1 µM, first compound 0.1 µM
[21] = second compound 1 µM, first compound 0.316 µM
[22] = second compound 1 µM, first compound 1 µM
[23] = second compound 1 µM, first compound 3.16 µM
[24] = second compound 1 µM, first compound 10 µM
[25] = second compound 3.16 µM, first compound 0.0316 µM
[26] = second compound 3.16 µM, first compound 0.1 µM
[27] = second compound 3.16 µM, first compound 0.316 µM
[28] = second compound 3.16 µM, first compound 1 µM
[29] = second compound 3.16 µM, first compound 3.16 µM
[30] = second compound 3.16 µM, first compound 10 µM
[31] = second compound 10 µM, first compound 0.0316 µM
[32] = second compound 10 µM, first compound 0.1 µM
[33] = second compound 10 µM, first compound 0.316 µM
[34] = second compound 10 µM, first compound 1 µM
[35] = second compound 10 µM, first compound 3.16 µM
[36] = second compound 10 µM, first compound 10 µM
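Also: spheroids exposed to drugs for seven days.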
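For viability, T/C in this document: 100% = DMSO vehicle control viability.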

Nc1ccn(C2OC(CO)C(O)C2(F)F)c(=O)n1 (stereo unspecified) + Cc1[nH]c2ccc(F)cc2c1-c1nc2c3cccnc3c3ncccc3c2[nH]1
inactive: viability, T/C [1] 102% | viability, T/C [2] 74.9% | viability, T/C [3] 74.1% | viability, T/C [4] 71% | viability, T/C [5] 66.2% | viability, T/C [6] 78.4% | viability, T/C [7] 72.1% | viability, T/C [8] 88.4% | viability, T/C [9] 61.7% | viability, T/C [10] 76.3% | viability, T/C [11] 82.9% | viability, T/C [12] 67.8% | viability, T/C [13] 67% | viability, T/C [14] 74.8% | viability, T/C [15] 79.4% | viability, T/C [16] 73% | viability, T/C [17] 83.2% | viability, T/C [18] 63.6% | viability, T/C [19] 65% | viability, T/C [20] 58.5% | viability, T/C [21] 68.8% | viability, T/C [22] 76.7% | viability, T/C [23] 65.8% | viability, T/C [24] 64.8% | viability, T/C [25] 53.8% | viability, T/C [26] 42% | viability, T/C [27] 50.6% | viability, T/C [28] 50.1% | viability, T/C [29] 51.9% | viability, T/C [30] 59.3% | viability, T/C [31] 39.7% | viability, T/C [32] 43% | viability, T/C [33] 43.4% | viability, T/C [34] 40.2% | viability, T/C [35] 42.2% | viability, T/C [36] 40%
< 5.00: pIC50 (second compound 0.0316 µM) | pIC50 (second compound 0.1 µM) | pIC50 (second compound 0.316 µM) | pIC50 (second compound 1 µM)
> 7.50: pIC50 (second compound 3.16 µM) | pIC50 (second compound 10 µM)

CC(C)n1c(=O)n(C)c2cnc3cc(F)c(-c4ccc(OCCCN5CCCCC5)nc4)cc3c21 + Cc1cnc(CNC(=O)c2c(=O)c3ccc(N4CCCN(C)CC4)nc3n3c2sc2ccccc23)cn1
< 5.00: pIC50 (second compound 0.0316 µM) | pIC50 (second compound 0.1 µM) | pIC50 (second compound 0.316 µM) | pIC50 (second compound 1 µM) | pIC50 (second compound 3.16 µM) | pIC50 (second compound 10 µM)
inactive: viability, T/C [1] 81.3% | viability, T/C [2] 71.9% | viability, T/C [3] 82.5% | viability, T/C [4] 89.4% | viability, T/C [5] 79.3% | viability, T/C [6] 79.2% | viability, T/C [7] 79% | viability, T/C [8] 83.4% | viability, T/C [9] 76.8% | viability, T/C [10] 78.9% | viability, T/C [11] 96.5% | viability, T/C [12] 86.4% | viability, T/C [13] 85.9% | viability, T/C [14] 96.7% | viability, T/C [15] 82.1% | viability, T/C [16] 78.2% | viability, T/C [17] 85.2% | viability, T/C [18] 81.9% | viability, T/C [19] 69.9% | viability, T/C [20] 64.9% | viability, T/C [21] 89.3% | viability, T/C [22] 81.6% | viability, T/C [23] 85% | viability, T/C [24] 69.7% | viability, T/C [25] 80.4% | viability, T/C [26] 78% | viability, T/C [27] 79.3% | viability, T/C [28] 71.9% | viability, T/C [29] 75% | viability, T/C [30] 76.7% | viability, T/C [31] 74.3% | viability, T/C [32] 66.7% | viability, T/C [33] 66.8% | viability, T/C [34] 69.2% | viability, T/C [35] 80.8% | viability, T/C [36] 66.3%

Cc1[nH]c2ccccc2c1CCNCc1ccc(/C=C/C(=O)NO)cc1 + Cc1cnc(CNC(=O)c2c(=O)c3ccc(N4CCCN(C)CC4)nc3n3c2sc2ccccc23)cn1
inactive: viability, T/C (second compound 0.0316 µM, first compound 0.000999 µM) 90.4% | viability, T/C (second compound 0.0316 µM, first compound 0.00316 µM) 93% | viability, T/C (second compound 0.0316 µM, first compound 0.00999 µM) 87.7% | viability, T/C [1] 82.3% | viability, T/C (second compound 0.0316 µM, first compound 0.0999 µM) 75.7% | viability, T/C [3] 36.6% | viability, T/C (second compound 0.1 µM, first compound 0.000999 µM) 80.1% | viability, T/C (second compound 0.1 µM, first compound 0.00316 µM) 74.1% | viability, T/C (second compound 0.1 µM, first compound 0.00999 µM) 92.7% | viability, T/C [7] 101% | viability, T/C (second compound 0.1 µM, first compound 0.0999 µM) 57.8% | viability, T/C [9] 33.2% | viability, T/C (second compound 0.316 µM, first compound 0.000999 µM) 88% | viability, T/C (second compound 0.316 µM, first compound 0.00316 µM) 99.1% | viability, T/C (second compound 0.316 µM, first compound 0.00999 µM) 102% | viability, T/C [13] 74.3% | viability, T/C (second compound 0.316 µM, first compound 0.0999 µM) 57.9% | viability, T/C [15] 29.6% | viability, T/C (second compound 1 µM, first compound 0.000999 µM) 71.5% | viability, T/C (second compound 1 µM, first compound 0.00316 µM) 92% | viability, T/C (second compound 1 µM, first compound 0.00999 µM) 88.1% | viability, T/C [19] 70.9% | viability, T/C (second compound 1 µM, first compound 0.0999 µM) 35.2% | viability, T/C [21] 19.1% | viability, T/C (second compound 3.16 µM, first compound 0.000999 µM) 71.6% | viability, T/C (second compound 3.16 µM, first compound 0.00316 µM) 85.8% | viability, T/C (second compound 3.16 µM, first compound 0.00999 µM) 68% | viability, T/C [25] 62.3% | viability, T/C (second compound 3.16 µM, first compound 0.0999 µM) 29.2% | viability, T/C (second compound 10 µM, first compound 0.000999 µM) 70.9% | viability, T/C (second compound 10 µM, first compound 0.00316 µM) 60.8% | viability, T/C (second compound 10 µM, first compound 0.00999 µM) 73.2% | viability, T/C [31] 54.7% | viability, T/C (second compound 10 µM, first compound 0.0999 µM) 26.4%
6.68: pIC50 (second compound 0.0316 µM)
7.39: pIC50 (second compound 10 µM)
6.90: pIC50 (second compound 0.316 µM)
7.20: pIC50 (second compound 1 µM)
7.33: pIC50 (second compound 3.16 µM)
6.84: pIC50 (second compound 0.1 µM)
active: viability, T/C [27] 9.8% | viability, T/C [33] 4.45%

Source: PubChem BioAssay AID2060496 (Molecular Pharmacology Branch, DTP, NCI, 2025)
